Experimental findings from US20080182859A1 (Curis, Inc., priority 2006, published 2008) are described below.

Counter-ions that a name gives are not always drawn.

Assay type in all cases: cell-based
Assay [1] relates to sonic hedgehog pathway. Kind of assay: Hedgehog pathway Gli-luciferase reporter assay, TM3 cells. The settings on record: TM3 mouse Leydig cells. From the text: (§1) Mouse (TM3: mouse Leydig cells; S12: mouse embryonic mesenchymal cells) and human (Daoy: human medulloblastoma cell; HepM: human embryonic palatal mesenchymal cell) cell lines are used to screen small molecules for their ability to modulate the activity of the sonic hedgehog pathway (Table 1, Table 2, and Table 3). Stable hedgehog pathway reporter cell lines are established by specific antibiotic selection following transfection of a reporter plasmid containing a luciferase gene located directly downstream from the gli promoter. Consequently, any observable changes in cellular luciferase activity may be attributed to changes in sonic hedgehog pathway activity in mouse and human cells, respectively, since gli is the major by-product of this pathway. To calculate activity, we generate an eleven point dose curve for each compound using 1:3 dilutions in 96 well assay plates. Each plate tested also contains low and high control to establish maximal pathway activation so to establish/compare a percentage activation of each tested compound (AMAX) on respective plates. Also we calculate EC50 values, or a concentration where the pathway will be exactly 50% activated, for each tested compound to determine potency. In these cell lines, compounds that register >20% AMAX values are considered active.
(§2) Stable hedgehog pathway reporter cell lines are established following specific antibiotic selection following transfection of a reporter plasmid In short, typically cells are plated in MicroTiter-plates at 10,000-20,000 cells per well, in growth media (containing 10%-20% FBS). After 48-72 hrs (HGL and DGL respectively) the media in the assay plates is switched to low-serum containing media (0.5% FBS). At that time compounds are added (at 1-5 μM) to the assay plates, in the presence or absence of hedgehog protein (octyl-modified version; 1-5 ng/ml). After another 24 hrs of incubation, the media from the assay plates is discarded and replaced with luciferase assay-mix. Subsequently, plates are incubated at RT for ˜15-30 mins and then read in a luminometer. [note: addition of the Hedgehog protein, although not critical, will sensitize the assay allowing the identification of weak actives].
(A reporter such as luciferase makes a cellular process visible.)

The subject of assay [2] is sonic hedgehog pathway. The assay is described as follows: Human hedgehog reporter assay HEPM-GliLuc (HGL). The note with it: HepM human embryonic palatal mesenchymal cells, Gli-luciferase reporter.
Description: as §1, §2

The test system of assay [3] is sonic hedgehog pathway. The assay is described as follows: Human hedgehog reporter assay Daoy-GliLuc (DGL). The settings on record: Daoy human medulloblastoma cells, Gli-luciferase reporter; read-out: Daoy Avg. EC50.
Description: as §1, §2

As to `CN[C@H]1CC[C@@H](N(Cc2cc(-c3ccnc(C)c3)ccc2OC)C(=O)c2sc3ccccc3c2Cl)CC1` [331 (R11)], the concentration for a half-maximal effect (EC50) in the assay on sonic hedgehog pathway [1] and in the assay with sonic hedgehog pathway [2] was < 50 nM in each case.

In the case of `CN[C@H]1CC[C@@H](N(Cc2cc(-c3ccncc3)ccc2OC)C(=O)c2sc3ccccc3c2Cl)CC1` [339 (R12)], the EC50 with sonic hedgehog pathway [1] and with sonic hedgehog pathway [2] was < 50 nM each time.

In the case of `CN[C@H]1CC[C@@H](N(Cc2cc(-c3ccc(C)nc3)ccc2OC)C(=O)c2sc3ccccc3c2Cl)CC1` [Compound 320, 3-Chloro-benzo[b]thiophene-2-carboxylic acid [2-methoxy-5-(6-methyl-pyridin-3-yl)-benzyl]-(4-methylamino-cyclohexyl)-amide dihydrochloride], the 50% effective concentration (EC50) in the assay with sonic hedgehog pathway [1] and in the assay with sonic hedgehog pathway [2] was < 50 nM in each case.

As to `CN[C@H]1CC[C@@H](N(Cc2cc(-c3cccc(C#N)c3)ccc2OC)C(=O)c2sc3c(F)ccc(F)c3c2Cl)CC1` [Compound 337, 3-Chloro-4,7-difluoro-benzo[b]thiophene-2-carboxylic acid (3′-cyano-4-methoxy-biphenyl-3-ylmethyl)-(4-methylamino-cyclohexyl)-amide hydrochloride], the concentration giving a half-maximal response (EC50) in the assay on sonic hedgehog pathway [1] and in the assay on sonic hedgehog pathway [2] was < 50 nM each time.

For the compound `CCOc1ccc(-c2ccc(C(=O)C(F)(F)F)cc2)cc1CN(C(=O)c1sc2c(F)ccc(F)c2c1Cl)[C@H]1CC[C@@H](NC)CC1` [Compound 341, 3-Chloro-4,7-difluoro-benzo[b]thiophene-2-carboxylic acid [4-ethoxy-4′-(2,2,2-trifluoro-acetyl)-biphenyl-3-ylmethyl]-(4-methylamino-cyclohexyl)-amide trifluoroacetate], the values for the concentration for a half-maximal effect (EC50) in the assay with sonic hedgehog pathway [1] and with sonic hedgehog pathway [2] were < 50 nM and 50 to 250 nM, respectively.

`CN[C@H]1CC[C@@H](N(Cc2cc(-c3ccc(C#N)cc3)ccc2OC)C(=O)c2sc3c(F)ccc(F)c3c2Cl)CC1` [Compound 351, 3-Chloro-4,7-difluoro-benzo[b]thiophene-2-carboxylic acid (4′-cyano-4-methoxy-biphenyl-3-ylmethyl)-(4-methylamino-cyclohexyl)-amide hydrochloride]: the EC50 in the assay on sonic hedgehog pathway [1] and in the assay on sonic hedgehog pathway [2] was < 50 nM each time.

For `CN[C@H]1CC[C@@H](N(Cc2cc(-c3cccc(C(C)=O)c3)ccc2OC)C(=O)c2sc3c(F)ccc(F)c3c2Cl)CC1` [Compound 364, 3-Chloro-4,7-difluoro-benzo[b]thiophene-2-carboxylic acid (3′-acetyl-4-methoxy-biphenyl-3-ylmethyl)-(4-methylamino-cyclohexyl)-amide hydrochloride], the concentration giving a half-maximal response (EC50) with sonic hedgehog pathway [1] and in the assay with sonic hedgehog pathway [2] was < 50 nM throughout.

Regarding `CN[C@H]1CC[C@@H](N(Cc2cc(-c3ccc(C#N)cc3)ccc2OC)C(=O)c2sc3cccc(F)c3c2Cl)CC1` [Compound 366, 3-Chloro-4-fluoro-benzo[b]thiophene-2-carboxylic acid (4′-cyano-4-methoxy-biphenyl-3-ylmethyl)-(4-methylamino-cyclohexyl)-amide hydrochloride], the EC50 in the assay with sonic hedgehog pathway [1] and with sonic hedgehog pathway [3] was < 50 nM in each case.

In the case of `CCOc1ccc(-c2ccc(N)nc2)cc1CN(C(=O)c1sc2ccccc2c1Cl)[C@H]1CC[C@H](NC)CC1` [Compound 396, 3-Chloro-benzo[b]thiophene-2-carboxylic acid [2-ethoxy-5-(6-amino-pyridin-3-yl)-benzyl]-(4-methylamino-cyclohexyl)-amide dihydrochloride], the figures for the concentration for a half-maximal effect (EC50) in the assay on sonic hedgehog pathway [1] and with sonic hedgehog pathway [2] were 250 to 1000 nM and 50 to 250 nM, respectively.

`CNc1ccc(-c2ccc(OC)c(CN(C(=O)c3sc4ccccc4c3Cl)[C@H]3CC[C@H](NC)CC3)c2)cn1` [Compound 397, 3-Chloro-benzo[b]thiophene-2-carboxylic acid [2-methoxy-5-(6-methylamino-pyridin-3-yl)-benzyl]-(4-methylamino-cyclohexyl)-amide dihydrochloride]: the EC50 in the assay on sonic hedgehog pathway [1] and with sonic hedgehog pathway [2] was 250 to 1000 nM throughout.

Regarding `CCOc1ccc(-c2cc(C)nc(C)c2)cc1CN(C(=O)c1sc2ccccc2c1Cl)[C@H]1CC[C@H](NC)CC1` [Compound 400, 3-Chloro-benzo[b]thiophene-2-carboxylic acid [5-(2,6-dimethyl-pyridin-4-yl)-2-ethoxy-benzyl]-(4-methylamino-cyclohexyl)-amide dihydrochloride], the EC50 in the assay with sonic hedgehog pathway [1] and in the assay on sonic hedgehog pathway [2] was 250 to 1000 nM in each case.

As for `CCOc1ccc(-c2ccc(N)nc2C)cc1CN(C(=O)c1sc2ccccc2c1Cl)[C@H]1CC[C@H](NC)CC1` [Compound 403, 3-Chloro-benzo[b]thiophene-2-carboxylic acid [5-(6-amino-2-methyl-pyridin-3-yl)-2-ethoxy-benzyl]-(4-methylamino-cyclohexyl)-amide dihydrochloride], the EC50 in the assay with sonic hedgehog pathway [1] fell in the range of 1000 to 2500 nM; in the assay on sonic hedgehog pathway [2], 250 to 1000 nM.

Consider `CCOc1ccc(-c2ccc(N(C)C)nc2)cc1CN(C(=O)c1sc2ccccc2c1Cl)[C@H]1CC[C@H](NC)CC1` [Compound 404, 3-Chloro-benzo[b]thiophene-2-carboxylic acid [5-(6-dimethylamino-pyridin-3-yl)-2-ethoxy-benzyl]-(4-methylamino-cyclohexyl)-amide bis(trifluoroacetate)], for which the 50% effective concentration (EC50) lay within 1000 to 2500 nM in the assay on sonic hedgehog pathway [1] and 250 to 1000 nM with sonic hedgehog pathway [2].

For the compound `CN[C@H]1CC[C@H](N(Cc2cc(-c3ccc(N(C)C)nc3)ccc2OC)C(=O)c2sc3ccccc3c2Cl)CC1` [Compound 405, 3-Chloro-benzo[b]thiophene-2-carboxylic acid [5-(6-dimethylamino-pyridin-3-yl)-2-methoxy-benzyl]-(4-methylamino-cyclohexyl)-amide bis(trifluoroacetate)], the figures for the EC50 with sonic hedgehog pathway [1] and in the assay with sonic hedgehog pathway [2] were 1000 to 2500 nM and 250 to 1000 nM, respectively.

`CN[C@H]1CC[C@H](N(Cc2cc(-c3ccc(C)nc3)ccc2OC)C(=O)c2sc3cccc(F)c3c2Cl)CC1` [Compound 406, 3-Chloro-4-fluoro-benzo[b]thiophene-2-carboxylic acid [2-methoxy-5-(6-methyl-pyridin-3-yl)-benzyl]-(4-methylamino-cyclohexyl)-amide dihydrochloride]: the concentration giving a half-maximal response (EC50) in the assay on sonic hedgehog pathway [1] was < 50 nM; in the assay with sonic hedgehog pathway [2] it was 50 to 250 nM.

Regarding `CN[C@H]1CC[C@H](N(Cc2cc(-c3cccc(C#N)c3)ccc2F)C(=O)c2sc3ccccc3c2Cl)CC1` [Compound 420, 3-Chloro-benzo[b]thiophene-2-carboxylic acid (3′-cyano-4-fluoro-biphenyl-3-ylmethyl)-(4-methylamino-cyclohexyl)-amide trifluoroacetate], the EC50 in the assay with sonic hedgehog pathway [1] and in the assay with sonic hedgehog pathway [3] was 50 to 250 nM each time.

For the compound `CN[C@H]1CC[C@H](N(Cc2cc(-c3ccc(C#N)cc3)ccc2F)C(=O)c2sc3ccccc3c2Cl)CC1` [Compound 423, 3-Chloro-benzo[b]thiophene-2-carboxylic acid (4′-cyano-4-fluoro-biphenyl-3-ylmethyl)-(4-methylamino-cyclohexyl)-amide trifluoroacetate], the EC50 in the assay on sonic hedgehog pathway [1] and with sonic hedgehog pathway [3] was 250 to 1000 nM each time.

Regarding `CN[C@H]1CC[C@H](N(Cc2cc(-c3ccccc3)ccc2F)C(=O)c2sc3ccccc3c2Cl)CC1` [Compound 425, 3-Chloro-benzo[b]thiophene-2-carboxylic acid (4-fluoro-biphenyl-3-ylmethyl)-(4-methylamino-cyclohexyl)-amide trifluoroacetate], the EC50 in the assay with sonic hedgehog pathway [1] and in the assay on sonic hedgehog pathway [3] was < 50 nM in each case.

`CN[C@H]1CC[C@H](N(Cc2cc(-c3ccc(N(C)C=O)cc3)ccc2F)C(=O)c2sc3ccccc3c2Cl)CC1` [Compound 426, 3-Chloro-benzo[b]thiophene-2-carboxylic acid [4-fluoro-4′-(formyl-methyl-amino)-biphenyl-3-ylmethyl]-(4-methylamino-cyclohexyl)-amide trifluoroacetate]: the values for the concentration for a half-maximal effect (EC50) in the assay on sonic hedgehog pathway [1] and in the assay with sonic hedgehog pathway [3] were < 50 nM and 50 to 250 nM, respectively.

As to `CN[C@H]1CC[C@H](N(Cc2cc(-c3ccc(C(O)C(F)(F)F)cc3)ccc2F)C(=O)c2sc3ccccc3c2Cl)CC1` (stereo partly drawn) [Compound 433, 3-Chloro-benzo[b]thiophene-2-carboxylic acid [4-fluoro-4′-(2,2,2-trifluoro-1-hydroxy-ethyl)-biphenyl-3-ylmethyl]-(4-methylamino-cyclohexyl)-amide hydrochloride], the concentration giving a half-maximal response (EC50) with sonic hedgehog pathway [1] and with sonic hedgehog pathway [3] was < 50 nM each time.

Regarding `CN[C@H]1CC[C@H](N(Cc2cc(-c3ccc(C(=O)C(F)(F)F)cc3)ccc2F)C(=O)c2sc3c(F)ccc(F)c3c2Cl)CC1` [Compound 434, 3-Chloro-4,7-difluoro-benzo[b]thiophene-2-carboxylic acid [4-fluoro-4′-(2,2,2-trifluoro-acetyl)-biphenyl-3-ylmethyl]-(4-methylamino-cyclohexyl)-amide hydrochloride], the EC50 with sonic hedgehog pathway [1] and in the assay with sonic hedgehog pathway [3] was < 50 nM throughout.

Usually EC50 stands for the concentration giving half of the maximal effect.
